The source of these data is patent publication US8080563B2, “Bicyclic heteroaryl inhibitors of PDE4” (Kalypsys, priority 2006, dated 2011).

pIC50: −log10 of the molar value. Bounds are passed on as bounds.

Assay [1] concerns Lacrimal Gland Inflammation-Induced Dry Eye in Rabbits. The assay is described as follows: Lacrimal gland inflammation-induced dry eye in rabbits (corneal staining, tear breakup time). It is filed as in vivo. The conditions noted are these: topical ocular BID; for Activity at Percent Concentration Tested 1 × 10^−2: 1 × 10^−2 percent concentration; for Activity at Percent Concentration Tested 1 × 10^−4: 1 × 10^−4 percent concentration; for Activity at Percent Concentration Tested 1 × 10^−6: 1 × 10^−6 percent concentration. The source says:
A more detailed description of the assay used herein may be found in Naglehout, T J et al. 2005, “Preservation of Tear Film Integrity and Inhibition of Corneal Injury by Dexamethasone in a Rabbit Model of Lacrimal Gland Inflammation-Induced Dry Eye,” J. Ocular Pharm. Ther., 21:2. 139-148, the disclosure of which is hereby incorporated by reference as if written herein in its entirety.
Rabbits (n=4/group) were randomized into treatment groups and dosed topically BID with maxidex vehicle or test drug beginning one day prior to initiation of dry eye. Each rabbit received bilateral lacrimal gland injections of saline or ConA (300 μg/30 μl) and topical ocular dosing was continued BID throughout the study.
Desiccation was initiated 1-2 hours following lacrimal gland injection by placing conscious rabbits in the environmental chamber (10-15% humidity/72° F.). Following 72 consecutive hours of exposure to this dry environment, the animals were anesthetized and sutures were placed in each upper and lower eyelid and lifted to form a corneal/conjunctival cup. Methylene blue dye (1 mL, 1% in dH2O) was added to the cup for three minutes and the excess removed by washing with 200 mL BSS®. The contralateral eye was then stained using the same procedure. Rabbits were euthanized immediately following the staining procedure and the eyes were excised. The corneas were isolated with a trephine and the 9.5-mm punch of the cornea was placed in 2 mL acetone/saturated sodium sulfate (7:3, vol./vol.). Absorbance of the extracted dye was determined at 660 nm.
TBUT was quantified in a separate group of treated animals. TBUT was determined by instilling 5 μL sodium fluorescein into the cul de sac and manually blinking the lids to distribute the fluorescein within the tear film. Under slit lamp observation, the eye was held open and the time whereby one or more black spots or streaks appeared in the precorneal tear film was recorded. The rabbits were euthanized 3 days following ConA injection.

The next assay has as its target T1, PDE4B (Homo sapiens, UniProt Q07343).
T1 construct: hex-histidine (His6) (N); made in house
The assay is described as follows: Coupled PDE/AK bioluminescent assay of PDE inhibition. It is filed as biochemical. The conditions noted are these: PDE4B catalytic domain. The source says:
Phosphodiesterases regulate the activity of the second messenger cyclic adenosine monophosphate (cAMP) by hydrolyzing cAMP to adenosine monophosphate (AMP). We developed a novel coupled PDE/AK bioluminescent high-throughput assay to measure the activity of phosphodiesterases. In the PDE/AK assay, the AMP produced from the hydrolysis of cAMP by phosphodiesterase is converted to adenosine diphosphate (ADP) by the phosphotransferase activity of adenylate kinase (also known as ADK or myokinase). Adenylate kinase will catalyze the conversion of 1 mole of AMP and 1 mole of ATP into 2 moles of ADP. Thus the conversion of AMP to ADP will result in the subsequent loss of ATP. The decrease in ATP concentration can be monitored as light output using luciferase in a reaction that requires ATP to produce light. The PDE/AK assay uses luciferase, which catalyzes the production of light from ATP present in the reaction mix. The amount of emitted light is inversely proportional to the level of AMP present in the reaction. Test compounds are incubated with the phosphodiesterases and phosphodiesterase inhibitors will decrease the rate of cAMP hydrolysis and decrease the subsequent production of AMP. Thus phosphodiesterase inhibitors will decrease the conversion of ATP to ADP and result in the greatest emission of light.
Compounds may be screened for functional potency in in vitro biochemical assays for their ability to inhibit the activity of phosphodiesterase (PDE) enzymes. A novel coupled PDE/AK assay was utilized to measure the inhibitory activity of compounds on PDE isoforms. The catalytic domain of PDE4B was fused to an amino-terminus hex-histidine affinity tag and purified. PDE4B enzyme was incubated with compounds for 10 minutes. Cyclic AMP substrate, ATP and adenylate kinase were then added to the PDE enzyme mix and incubated for 45 minutes at room temperature. A commercial ATP detection assay, Perkin Elmer's easyLite ATP detection reagent, was then added to measure the relative amount of ATP present in the reaction. After […], the luminescent signal was quantitated with either the Perkin Elmer Viewlux or Molecular Devices Acquest or Analyst. Roflumilast and Rolipram are the positive controls used in the assay.

T1 sequence (Q07343 330-659 limits assumed, species assumed): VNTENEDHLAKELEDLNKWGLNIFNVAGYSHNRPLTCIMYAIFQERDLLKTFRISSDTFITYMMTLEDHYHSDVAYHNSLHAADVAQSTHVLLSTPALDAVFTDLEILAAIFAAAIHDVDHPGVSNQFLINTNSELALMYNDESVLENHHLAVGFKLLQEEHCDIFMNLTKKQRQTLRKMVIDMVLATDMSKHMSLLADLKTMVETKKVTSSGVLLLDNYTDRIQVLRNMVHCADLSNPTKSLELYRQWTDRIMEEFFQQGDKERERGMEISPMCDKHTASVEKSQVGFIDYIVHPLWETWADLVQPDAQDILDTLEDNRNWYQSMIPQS

In the case of `COc1ccc2c(Nc3c(Cl)cncc3Cl)cc(=O)[nH]c2c1OC1CCCC1` [Example 1, 8-(Cyclopentyloxy)-4-(3,5-dichloropyridin-4-ylamino)-7-methoxyquinolin-2(1H)-one], in assay [1] (1 percent concentration), the “Activity at Percent Concentration Tested 1” value is “Inactive”. In assay [1] (1 × 10^−1 percent concentration), the “Activity at Percent Concentration Tested 1 × 10^−1” value was “Inactive”. Besides, in assay [1], the “Activity at Percent Concentration Tested 1 × 10^−2” value is “Inactive”. Moreover, the negative-log IC50 (pIC50) against PDE4B was at least 6.00.
On to `COc1ccc2c(Oc3c(Cl)cncc3Cl)cc(=O)[nH]c2c1OC1CCCC1` [Example 2, 8-(Cyclopentyloxy)-4-(3,5-dichloropyridin-4-yloxy)-7-methoxyquinolin-2(1H)-one], for which the pIC50 against PDE4B is at least 6.00.
At PDE4B, `COc1ccc2c(Nc3c(Cl)cncc3Cl)cc(=O)[nH]c2c1OCC1CC1` [Example 3, 8-(Cyclopropylmethoxy)-4-(3,5-dichloropyridin-4-ylamino)-7-methoxyquinolin-2(1H)-one] showed a pIC50 of at least 6.00.
On the same count and under the same terms, to `COc1ccc2c(Nc3c(Cl)cncc3Cl)cc(=O)n(C)c2c1OC1CCCC1` [Example 4, 8-(Cyclopentyloxy)-4-(3,5-dichloropyridin-4-ylamino)-7-methoxy-1-methylquinolin-2(1H)-one] belongs at least 6.00.
In the case of `COc1ccc2c(Nc3c(C)cncc3C)cc(=O)[nH]c2c1OC1CCCC1` [Example 5, 8-(Cyclopentyloxy)-4-(3,5-dimethylpyridin-4-ylamino)-7-methoxyquinolin-2(1H)-one], in assay [1], the “Activity at Percent Concentration Tested 1 × 10^−2” value is on record as “Inactive”, the “Activity at Percent Concentration Tested 1 × 10^−4” value is “Inactive” and the “Activity at Percent Concentration Tested 1 × 10^−6” value is recorded as “Inactive”. The pIC50 against PDE4B is at least 6.00.
Consider `COc1ccc2c(Nc3c(Cl)cncc3Cl)c(Br)c(=O)n(Br)c2c1OC1CCCC1` [Example 6, 1,3-Dibromo-8-(cyclopentyloxy)-4-(3,5-dichloropyridin-4-ylamino)-7-methoxyquinolin-2(1H)-one], for which, on PDE4B, the pIC50 is at least 6.00.
At PDE4B, `COc1ccc2c(Nc3c(Cl)cncc3Cl)c(Br)c(=O)[nH]c2c1OC1CCCC1` [Example 7, 3-Bromo-8-(cyclopentyloxy)-4-(3,5-dichloropyridin-4-ylamino)-7-methoxyquinolin-2(1H)-one] gave a pIC50 of at least 6.00.
Turning to `COc1ccc2c(Nc3c(C)cncc3C)cc(=O)[nH]c2c1OCC1CC1` [Example 8, 8-(Cyclopropylmethoxy)-4-(3,5-dimethylpyridin-4-ylamino)-7-methoxyquinolin-2(1H)-one], in assay [1], the “Activity at Percent Concentration Tested 1 × 10^−2” value is reported as “Inactive”, the “Activity at Percent Concentration Tested 1 × 10^−4” value is recorded as “Inactive” and the “Activity at Percent Concentration Tested 1 × 10^−6” value is “Inactive”. Besides, the pIC50 against PDE4B is at least 6.00.
Consider `COc1ccc2c(Nc3c(Cl)cncc3Cl)cc(=O)n(CCO)c2c1OC1CCCC1` [Example 9, 8-(Cyclopentyloxy)-4-(3,5-dichloropyridin-4-ylamino)-1-(2-hydroxyethyl)-7-methoxyquinolin-2(1H)-one], for which the pIC50 at PDE4B is at least 6.00.
On to `COc1ccc2c(Nc3c(Cl)cncc3Cl)cc(=O)n(CCN(C)C)c2c1OC1CCCC1` [Example 10, 8-(Cyclopentyloxy)-4-(3,5-dichloropyridin-4-ylamino)-1-(2-(dimethylamino)ethyl)-7-methoxyquinolin-2(1H)-one], for which the pIC50 on PDE4B was at least 6.00.
Still for that read-out and setting: to `COc1ccc2c(Nc3c(Cl)cncc3Cl)cc(=O)[nH]c2c1OCCCCCC(=O)O` [Example 11, 6-(4-(3,5-Dichloropyridin-4-ylamino)-7-methoxy-2-oxo-1,2-dihydroquinolin-8-yloxy)hexanoic acid] belongs at least 6.00; to `COc1ccc2c(Nc3c(C)cncc3C)cc(=O)[nH]c2c1OCC(C)C` [Example 12, 4-(3,5-Dimethylpyridin-4-ylamino)-8-isobutoxy-7-methoxyquinolin-2(1H)-one], at least 6.00; to `COc1ccc2c(Nc3c(Cl)cncc3Cl)cc(=O)[nH]c2c1OCCCCN(C)C` [Example 13, 4-(3,5-Dichloropyridin-4-ylamino)-8-(4-(dimethylamino)butoxy) -7-methoxyquinolin-2(1H)-one], at least 6.00.
On the same count and under the same terms, the figure for `COc1ccc2c(Nc3c(Cl)cncc3Cl)cc(=O)[nH]c2c1OCCCCCN(C)C` [Example 14, 4-(3,5-Dichloropyridin-4-ylamino)-8-(5-(dimethylamino)pentyloxy)-7-methoxyquinolin-2(1H)-one] is at least 6.00.
